# ChEMBL document CHEMBL1649156, “Antianaerobic activity of sulopenem compared to six other agents” (2009)
# Key:
# Type in all cases: functional
# Prevotella baroniae = test: Antimicrobial activity in Prevotella baroniae by CLSI agar dilution method; conditions: Segatella baroniae
# Hoylesella oralis = test: Antimicrobial activity in Prevotella oralis group by CLSI agar dilution method
# Prevotella veroralis = test: Antimicrobial activity in Prevotella veroralis by CLSI agar dilution method
# Prevotella bergensis = test: Antimicrobial activity in Prevotella bergensis by CLSI agar dilution method; conditions: Hallella bergensis
# Prevotella salivae = test: Antimicrobial activity in Prevotella salivae by CLSI agar dilution method; conditions: Segatella salivae
# Hoylesella loescheii = test: Antimicrobial activity in Prevotella loescheii by CLSI agar dilution method
# Prevotella sp. = test: Antimicrobial activity in Prevotella sp.by CLSI agar dilution method
# [1] = tested on: Porphyromonas asaccharolytica; test: Antimicrobial activity in Porphyromonas asaccharolytica by CLSI agar dilution method
# Fusobacterium nucleatum = test: Antimicrobial activity in Fusobacterium nucleatum by CLSI agar dilution method
# [2] = tested on: Fusobacterium necrophorum; test: Antimicrobial activity in Fusobacterium necrophorum by CLSI agar dilution method
# Fusobacterium mortiferum = test: Antimicrobial activity in Fusobacterium mortiferum by CLSI agar dilution method
# Fusobacterium varium = test: Antimicrobial activity in Fusobacterium varium by CLSI agar dilution method
# Finegoldia magna = test: Antimicrobial activity in Finegoldia magna by CLSI agar dilution method
# Parvimonas micra = test: Antimicrobial activity in Micromonas micros by CLSI agar dilution method
# [3] = tested on: Peptostreptococcus anaerobius; test: Antimicrobial activity in Peptostreptococcus anaerobius by CLSI agar dilution method
# [4] = tested on: Peptoniphilus asaccharolyticus; test: Antimicrobial activity in Peptoniphilus asaccharolyticus by CLSI agar dilution method
# Anaerococcus tetradius = test: Antimicrobial activity in Anaerococcus tetradius by CLSI agar dilution method
# Anaerococcus prevotii = test: Antimicrobial activity in Anaerococcus prevotii by CLSI agar dilution method
# Lactobacillus = test: Antimicrobial activity in Lactobacillus by CLSI agar dilution method
# Bifidobacterium = test: Antimicrobial activity in Bifidobacterium by CLSI agar dilution method
# Cutibacterium acnes = test: Antimicrobial activity in Propionibacterium acnes by CLSI agar dilution method
# Actinomyces = test: Antimicrobial activity in Actinomyces by CLSI agar dilution method
# Eggerthella lenta = test: Antimicrobial activity in Eggerthella lenta by CLSI agar dilution method
# Clostridium perfringens = test: Antimicrobial activity in Clostridium perfringens by CLSI agar dilution method
# Clostridioides difficile = test: Antimicrobial activity in Clostridium difficile by CLSI agar dilution method
# Clostridium sp. = test: Antimicrobial activity in Clostridium sp. by CLSI agar dilution method
# Clostridium tertium = test: Antimicrobial activity in Clostridium tertium by CLSI agar dilution method
# Thomasclavelia ramosa = test: Antimicrobial activity in Clostridium ramosum by CLSI agar dilution method
# Clostridium cadaveris = test: Antimicrobial activity in Clostridium cadaveris by CLSI agar dilution method
# [5] = tested on: Paraclostridium bifermentans; test: Antimicrobial activity in Clostridium bifermentans by CLSI agar dilution method
# [Clostridium] innocuum = Antimicrobial activity in Clostridium innocuum by CLSI agar dilution method
# [6] = tested on: Paeniclostridium sordellii; test: Antimicrobial activity in Clostridium sordellii by CLSI agar dilution method; conditions: Paraclostridium sordellii
# Clostridium butyricum = test: Antimicrobial activity in Clostridium butyricum by CLSI agar dilution method
# [7] = tested on: Enterocloster clostridioformis; test: Antimicrobial activity in Clostridium clostridioforme by CLSI agar dilution method
# Bacteroides fragilis = test: Antimicrobial activity in Bacteroides fragilis by CLSI agar dilution method
# [8] = tested on: Bacteroides thetaiotaomicron; test: Antimicrobial activity in Bacteroides thetaiotaomicron by CLSI agar dilution method
# Bacteroides ovatus = test: Antimicrobial activity in Bacteroides ovatus by CLSI agar dilution method
# Phocaeicola vulgatus = test: Antimicrobial activity in Bacteroides vulgatus by CLSI agar dilution method
# [9] = tested on: Parabacteroides distasonis; test: Antimicrobial activity in Bacteroides distasonis by CLSI agar dilution method
# Bacteroides uniformis = test: Antimicrobial activity in Bacteroides uniformis by CLSI agar dilution method
# Bacteroides stercoris = test: Antimicrobial activity in Bacteroides stercoris by CLSI agar dilution method
# Prevotella bivia = test: Antimicrobial activity in Prevotella bivia by CLSI agar dilution method
# Prevotella buccae = test: Antimicrobial activity in Prevotella buccae by CLSI agar dilution method; conditions: Segatella buccae
# [10] = tested on: Prevotella melaninogenica; test: Antimicrobial activity in Prevotella melaninogenica by CLSI agar dilution method
# Prevotella denticola = test: Antimicrobial activity in Prevotella denticola by CLSI agar dilution method
# Prevotella intermedia = test: Antimicrobial activity in Prevotella intermedia by CLSI agar dilution method
# Prevotella nigrescens = test: Antimicrobial activity in Prevotella nigrescens by CLSI agar dilution method
# Prevotella corporis = test: Antimicrobial activity in Prevotella corporis by CLSI agar dilution method
# Prevotella disiens = test: Antimicrobial activity in Prevotella disiens by CLSI agar dilution method
# Tissierella praeacuta = test: Antimicrobial activity in Clostridium hastiforme by CLSI agar dilution method
# Porphyromonas gingivalis = test: Antimicrobial activity in Porphyromonas gingivalis by CLSI agar dilution method
smiles,measurement,setting,value
C[C@@H](O)[C@H]1C(=O)N2C(C(=O)O)=C(SCCNC=N)C[C@H]12 [IMIPENEM ANHYDROUS],MIC,Prevotella baroniae,0.03 µg/mL
same,MIC,Hoylesella oralis,≤ 0.016 µg/mL
same,MIC,Prevotella veroralis,0.03 µg/mL
same,MIC,Prevotella bergensis,0.06 µg/mL
same,MIC,Prevotella salivae,0.03 µg/mL
same,MIC,Hoylesella loescheii,0.03 µg/mL
same,MIC,Prevotella sp.,0.03 µg/mL
same,MIC,[1],≤ 0.016 µg/mL
same,MIC50,Fusobacterium nucleatum,0.03 µg/mL
same,MIC90,Fusobacterium nucleatum,0.06 µg/mL
same,MIC,[2],≤ 0.016 µg/mL
same,MIC50,[2],≤ 0.016 µg/mL
same,MIC50,Fusobacterium mortiferum,0.5 µg/mL
same,MIC90,Fusobacterium mortiferum,1 µg/mL
same,MIC,Fusobacterium varium,0.5 µg/mL
same,MIC50,Fusobacterium varium,0.5 µg/mL
same,MIC90,Fusobacterium varium,1 µg/mL
same,MIC,Finegoldia magna,0.06 µg/mL
same,MIC50,Finegoldia magna,0.06 µg/mL
same,MIC90,Finegoldia magna,0.125 µg/mL
same,MIC,Parvimonas micra,0.03 µg/mL
same,MIC50,Parvimonas micra,0.03 µg/mL
same,MIC90,Parvimonas micra,0.06 µg/mL
same,MIC,[3],0.06 µg/mL
same,MIC50,[3],0.06 µg/mL
same,MIC90,[3],1 µg/mL
same,MIC,[4],≤ 0.016 µg/mL
same,MIC50,[4],≤ 0.016 µg/mL
same,MIC50,Anaerococcus tetradius,0.03 µg/mL
same,MIC90,Anaerococcus tetradius,0.06 µg/mL
same,MIC,Anaerococcus prevotii,≤ 0.016 µg/mL
same,MIC50,Lactobacillus,1 µg/mL
same,MIC90,Lactobacillus,2 µg/mL
same,MIC,Bifidobacterium,0.03 µg/mL
same,MIC50,Bifidobacterium,0.03 µg/mL
same,MIC90,Bifidobacterium,0.125 µg/mL
same,MIC50,Cutibacterium acnes,0.03 µg/mL
same,MIC90,Cutibacterium acnes,0.03 µg/mL
same,MIC,Actinomyces,0.06 µg/mL
same,MIC50,Actinomyces,0.125 µg/mL
same,MIC50,Eggerthella lenta,0.5 µg/mL
same,MIC90,Eggerthella lenta,0.5 µg/mL
same,MIC50,Clostridium perfringens,0.125 µg/mL
same,MIC90,Clostridium perfringens,0.125 µg/mL
same,MIC50,Clostridioides difficile,4 µg/mL
same,MIC90,Clostridioides difficile,4 µg/mL
same,MIC50,Clostridium sp.,1 µg/mL
same,MIC90,Clostridium sp.,1 µg/mL
same,MIC,Clostridium tertium,0.25 µg/mL
same,MIC50,Clostridium tertium,0.25 µg/mL
same,MIC,Thomasclavelia ramosa,0.25 µg/mL
same,MIC,Clostridium cadaveris,0.125 µg/mL
same,MIC,[5],0.25 µg/mL
same,MIC,[Clostridium] innocuum,0.125 µg/mL
same,MIC,[6],0.06 µg/mL
same,MIC,Clostridium butyricum,0.5 µg/mL
same,MIC,[7],1 µg/mL
same,MIC50,Bacteroides fragilis,0.125 µg/mL
same,MIC90,Bacteroides fragilis,0.25 µg/mL
same,MIC,[8],0.25 µg/mL
same,MIC50,[8],0.25 µg/mL
same,MIC90,[8],0.25 µg/mL
same,MIC,Bacteroides ovatus,0.125 µg/mL
same,MIC50,Bacteroides ovatus,0.125 µg/mL
same,MIC90,Bacteroides ovatus,0.25 µg/mL
same,MIC50,Phocaeicola vulgatus,0.5 µg/mL
same,MIC90,Phocaeicola vulgatus,0.5 µg/mL
same,MIC50,[9],0.5 µg/mL
same,MIC90,[9],1 µg/mL
same,MIC,Bacteroides uniformis,0.25 µg/mL
same,MIC50,Bacteroides uniformis,0.25 µg/mL
same,MIC,Bacteroides stercoris,0.25 µg/mL
same,MIC50,Bacteroides stercoris,0.25 µg/mL
same,MIC,Prevotella bivia,0.03 µg/mL
same,MIC50,Prevotella bivia,0.03 µg/mL
same,MIC90,Prevotella bivia,0.25 µg/mL
same,MIC,Prevotella buccae,0.03 µg/mL
same,MIC50,Prevotella buccae,0.03 µg/mL
same,MIC90,Prevotella buccae,0.125 µg/mL
same,MIC50,[10],0.03 µg/mL
same,MIC90,[10],0.125 µg/mL
same,MIC50,Prevotella denticola,0.03 µg/mL
same,MIC90,Prevotella denticola,0.125 µg/mL
same,MIC,Prevotella intermedia,≤ 0.016 µg/mL
same,MIC50,Prevotella intermedia,≤ 0.016 µg/mL
same,MIC90,Prevotella intermedia,0.06 µg/mL
same,MIC,Prevotella nigrescens,≤ 0.016 µg/mL
same,MIC50,Prevotella nigrescens,≤ 0.016 µg/mL
same,MIC90,Prevotella nigrescens,0.06 µg/mL
same,MIC,Prevotella corporis,≤ 0.016 µg/mL
same,MIC50,Prevotella corporis,≤ 0.016 µg/mL
same,MIC,Prevotella disiens,0.03 µg/mL
same,MIC50,Prevotella disiens,0.06 µg/mL
same,MIC,Tissierella praeacuta,2 µg/mL
same,MIC,Porphyromonas gingivalis,≤ 0.016 µg/mL
